The target of assay [1] is T1, Complement C1r subcomponent (Homo sapiens, UniProt P00736).
T1 sequence (P00736 whole entry): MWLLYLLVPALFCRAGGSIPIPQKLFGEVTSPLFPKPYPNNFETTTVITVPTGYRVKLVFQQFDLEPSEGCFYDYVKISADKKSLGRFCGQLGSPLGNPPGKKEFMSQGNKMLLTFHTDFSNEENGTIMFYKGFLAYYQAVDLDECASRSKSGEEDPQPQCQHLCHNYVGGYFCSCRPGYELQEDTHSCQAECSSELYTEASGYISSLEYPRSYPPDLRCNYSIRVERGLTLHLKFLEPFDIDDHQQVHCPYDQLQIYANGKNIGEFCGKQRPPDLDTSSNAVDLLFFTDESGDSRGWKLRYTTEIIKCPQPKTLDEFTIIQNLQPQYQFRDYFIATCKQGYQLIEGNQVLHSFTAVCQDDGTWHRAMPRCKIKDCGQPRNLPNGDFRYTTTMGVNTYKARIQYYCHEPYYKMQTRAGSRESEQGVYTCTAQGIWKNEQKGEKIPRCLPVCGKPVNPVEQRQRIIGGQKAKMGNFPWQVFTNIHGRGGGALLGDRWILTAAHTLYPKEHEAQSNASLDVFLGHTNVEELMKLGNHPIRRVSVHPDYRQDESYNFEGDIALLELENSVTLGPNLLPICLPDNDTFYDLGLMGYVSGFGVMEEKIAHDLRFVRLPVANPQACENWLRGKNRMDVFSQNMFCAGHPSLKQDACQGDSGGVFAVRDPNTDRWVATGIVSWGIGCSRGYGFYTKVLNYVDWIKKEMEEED
Put plainly: (§1) Inhibitory activity against C1r serine protease.

Assay [2] addresses T1, Complement C1r subcomponent. As to the kind of experiment: Inhibition of C1r serine protease.
Assay [3] shares this target. Described as §1. The source holds these as a separate data set.
Assay [4] deals with Prothrombin (Homo sapiens, UniProt P00734). As to the kind of experiment: Compound was evaluated for inhibitory activity against Thrombin.
Assay [5] addresses Kallikrein-1 (Homo sapiens, UniProt P06870). Put plainly: Compound was evaluated for inhibitory activity against Kallikrein.
In assay [6] the target is T2, Complement C1s subcomponent (Homo sapiens, UniProt P09871).
T2 sequence (P09871 whole entry): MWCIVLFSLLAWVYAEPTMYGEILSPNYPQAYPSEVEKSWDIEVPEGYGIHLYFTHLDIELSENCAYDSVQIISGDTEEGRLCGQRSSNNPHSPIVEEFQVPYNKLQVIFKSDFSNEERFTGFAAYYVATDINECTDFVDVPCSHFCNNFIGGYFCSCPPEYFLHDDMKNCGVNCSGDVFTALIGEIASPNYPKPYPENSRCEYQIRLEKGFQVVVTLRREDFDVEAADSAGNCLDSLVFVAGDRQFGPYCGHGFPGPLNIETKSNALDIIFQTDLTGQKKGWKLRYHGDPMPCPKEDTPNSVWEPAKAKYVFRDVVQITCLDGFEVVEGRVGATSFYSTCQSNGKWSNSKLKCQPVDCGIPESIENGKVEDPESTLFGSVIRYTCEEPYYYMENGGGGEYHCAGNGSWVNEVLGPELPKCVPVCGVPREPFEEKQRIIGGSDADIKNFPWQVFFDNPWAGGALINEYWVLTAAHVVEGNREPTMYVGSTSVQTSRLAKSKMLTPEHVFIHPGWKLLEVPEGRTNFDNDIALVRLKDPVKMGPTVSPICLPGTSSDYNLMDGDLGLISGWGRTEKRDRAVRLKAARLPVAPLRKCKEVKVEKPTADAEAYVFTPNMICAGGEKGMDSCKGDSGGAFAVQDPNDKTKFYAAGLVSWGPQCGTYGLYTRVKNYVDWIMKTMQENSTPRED
As to the kind of experiment: Compound was evaluated for inhibitory activity against C1s serine protease.

The target of assay [7] is T1, Complement C1r subcomponent. Put plainly: Compound was evaluated for inhibitory activity against C1r serine protease.
Assay [8] deals with T3, Complement C1r subcomponent (Homo sapiens) (UniProt P00736).
T3 sequence (whole entry): T1 sequence (P00736 whole entry)
Particulars: at 10 µM.

The target in assay [9] is T3, Complement C1r subcomponent (Homo sapiens). As to the kind of experiment: Compound was evaluated for percentage inhibitory activity against C1r serine protease in assay 1 at a concentration of 10 uM.
Assay [10] addresses Plasminogen (Homo sapiens, UniProt P00747). Put plainly: Compound was evaluated for inhibitory activity against plasmin.
Assay [11] has as its target Serine protease 1 (Homo sapiens, UniProt P07477). Put plainly: Compound was evaluated for inhibitory activity against Trypsin.
For assay [12], the target named is T1, Complement C1r subcomponent. Put plainly: Compound was evaluated for inhibitory activity against C1r serine protease in assay 2 at t=60 min.
The target is the same in assay [13]. Put plainly: Compound was evaluated for inhibitory activity against C1r serine protease in assay 1.

Sequence of Kallikrein-1 (P06870 whole entry): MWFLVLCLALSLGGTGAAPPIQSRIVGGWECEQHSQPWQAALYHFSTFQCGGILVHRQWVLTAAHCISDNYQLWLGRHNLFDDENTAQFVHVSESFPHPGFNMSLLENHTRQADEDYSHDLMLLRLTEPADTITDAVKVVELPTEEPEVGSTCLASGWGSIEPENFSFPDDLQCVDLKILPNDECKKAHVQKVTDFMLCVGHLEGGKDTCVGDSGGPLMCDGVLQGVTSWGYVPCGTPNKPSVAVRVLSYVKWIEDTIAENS
Sequence of Plasminogen (P00747 97-580 limits assumed): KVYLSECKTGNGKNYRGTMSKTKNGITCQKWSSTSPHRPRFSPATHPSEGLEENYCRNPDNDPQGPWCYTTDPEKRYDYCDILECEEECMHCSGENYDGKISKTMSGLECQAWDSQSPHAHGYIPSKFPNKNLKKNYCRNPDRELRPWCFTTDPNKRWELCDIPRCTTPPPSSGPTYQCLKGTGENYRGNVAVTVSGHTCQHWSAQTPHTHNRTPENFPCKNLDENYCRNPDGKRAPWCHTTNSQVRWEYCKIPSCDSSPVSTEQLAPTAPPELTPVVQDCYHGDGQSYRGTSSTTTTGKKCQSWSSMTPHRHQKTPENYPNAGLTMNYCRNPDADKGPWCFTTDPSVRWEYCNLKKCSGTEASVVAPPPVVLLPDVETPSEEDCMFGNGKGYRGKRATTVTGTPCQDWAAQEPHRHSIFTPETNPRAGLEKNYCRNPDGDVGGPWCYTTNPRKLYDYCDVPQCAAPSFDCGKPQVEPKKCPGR
Sequence of Plasminogen (P00747 581-810 limits assumed): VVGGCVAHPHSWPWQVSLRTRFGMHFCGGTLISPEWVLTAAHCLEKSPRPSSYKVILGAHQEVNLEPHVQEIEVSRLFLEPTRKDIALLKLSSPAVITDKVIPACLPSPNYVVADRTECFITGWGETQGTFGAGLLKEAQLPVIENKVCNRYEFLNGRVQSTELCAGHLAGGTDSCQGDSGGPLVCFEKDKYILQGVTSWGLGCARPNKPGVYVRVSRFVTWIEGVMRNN
Sequence of Serine protease 1 (P07477 whole entry): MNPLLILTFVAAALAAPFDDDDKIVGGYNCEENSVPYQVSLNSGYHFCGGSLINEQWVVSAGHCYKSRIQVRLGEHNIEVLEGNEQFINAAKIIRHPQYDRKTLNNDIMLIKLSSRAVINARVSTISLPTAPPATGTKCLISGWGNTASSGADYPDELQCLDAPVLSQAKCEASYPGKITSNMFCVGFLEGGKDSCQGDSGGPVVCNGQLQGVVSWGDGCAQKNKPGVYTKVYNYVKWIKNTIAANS

As to `O=c1oc(-c2ccccc2Br)nc2ccccc12`, the IC50 in assay [1] turned out to be 46 µM; in assay [2], 9.5 µM; in assay [3] it was 32 µM.
Consider `N=C(N)c1ccc2cc(OC(=O)c3ccc(N=C(N)N)cc3)ccc2c1` [NAFAMOSTAT], for which the IC50 came out at 0.29 µM in assay [4]; 0.65 µM in [5]; 12 µM in assay [1]; 0.14 µM in [6]; 1.04 µM in assay [7]; 1 µM in assay [2].
In the case of `O=c1oc(-c2ccccc2I)nc2ccc(Cl)cc12`, the IC50 is 27.3 µM in assay [1], 3 µM in [2] and 7.8 µM in assay [3].
For `O=C(O)c1ccccc1-c1nc2ccccc2c(=O)o1`, in [8], the inhibition worked out at 25%. The IC50 in assay [1] and in assay [3] was > 62.5 µM in each case.
As to `COc1ccc2c(=O)oc(-c3ccccc3I)nc2c1`, the IC50 in assay [1] and in assay [3] was > 62.5 µM each time. The molecule further had an inhibition in [9] of 27%.
As for `O=c1oc(-c2ccccc2I)nc2ccccc12`, the IC50 stood at 0.51 µM in assay [4]; 6.68 µM in assay [10]; 9.89 µM in assay [5]; 1.25 µM in assay [6]; 15.3 µM in assay [11]; 1.37 µM in assay [7]. The IC50 in assay [12] was determined as 50 µM; in assay [3], 16.7 µM; in [13], 1.4 µM.
Take `COc1cc2nc(-c3ccccc3I)oc(=O)c2cc1OC`: the IC50 in assay [1] and in assay [3] was > 62.5 µM each time. The same molecule showed an inhibition in assay [9] of 18%.
On to `O=c1oc(-c2ccccc2[N+](=O)[O-])nc2ccccc12`, for which the results for the IC50 in assay [1], in [2] and in assay [3] were > 62.5 µM, 36.3 µM and 15 µM, respectively.
As to `O=c1oc(Cc2ccccc2I)nc2ccccc12`, the IC50 in [1] came out at 40 µM; in [2], 6 µM; in assay [3], 26 µM.
As to `COc1ccc2nc(-c3ccccc3I)oc(=O)c2c1`, the IC50 in assay [1] was > 62.5 µM; in [2], 5 µM; in assay [3], > 62.5 µM.
On to `O=c1oc(-c2ccccc2I)nc2cccc(Cl)c12`, for which the IC50 came out at 57 µM in [1], 3 µM in [2] and 13.5 µM in assay [3].
Regarding `O=c1oc(-c2ccccc2I)nc2cc([N+](=O)[O-])ccc12`, in [8], the inhibition was found to be 0%. Further, the IC50 in assay [1] is > 62.5 µM; in [3] it was 22 µM.
In the case of `O=c1oc(-c2ccccc2C(F)(F)F)nc2ccccc12`, the IC50 in assay [1] is > 62.5 µM; in [2], 4.2 µM; in [3], 35.4 µM.
Turning to `O=c1oc(-c2ccccc2I)nc2cc(Cl)c(Cl)cc12`, the IC50 in assay [1] is > 62.5 µM; in assay [2] it was 1.7 µM; in assay [3], > 62.5 µM.
Take `O=c1oc(-c2ccccc2I)nc2cc3ccccc3cc12`: the IC50 was > 62.5 µM in [1], 0.7 µM in assay [2] and > 62.5 µM in [3].

The IC50 is the point on the concentration scale where inhibition reaches its midpoint. A high value points to weaker potency in that assay. As a reminder, the inhibition is the drop in the measured response relative to a control, in per cent. The low end stands for a response near the control, the high end for a response far below the control.

The values are drawn from ChEMBL document CHEMBL1128999, “Synthesis and evaluation of 2-aryl-4H-3,1-benzoxazin-4-ones as C1r serine protease inhibitors” (Bioorg Med Chem Lett, 1996).
